These results are taken from US20070196883A1, “ENZYME” (UNIVERSITY OF DUNDEE, priority 1999, published 2007).

The target of one test is T1, GST-PIF/PDK1 complex (Homo sapiens, UniProt O15530).
T1 construct: endogenous in cells; host or cells: 293 cells transfected with pEBG2T GST-PIF; endogenous PDK1 co-purified on glutathione-Sepharose
In words: Phosphorylation of GST-PKBα at Ser473 by GST-PIF/PDK1 (P-473 immunoblot). Type of test: biochemical. The conditions noted are these: lipid 10 μM in PtdCho/PtdSer vesicles, MgATP, 60 min 30° C. How it is done:
FIG. 5. The ability of GST-PIF to phosphorylate PKBα at Ser473 is dependent upon the presence of PDK1. GST-PIF purified from 293 cells, FIG. 2C (20 μg in 50 μl) was incubated with Protein G-Sepharose (10 μl) conjugated with either no antibody (control), MSK1 antibody A [40] (5 μg, non specific antibody), a PDK1 antibody raised against the whole protein (5 μg) or a PDK1 peptide antibody raised against the 16 C-terminal amino acid residues of PDK1 (5 μg, peptide antibody) in the presence or absence of the PDK1 C-terminal peptide immunogen (0.2 mM) to which this antibody was raised. After incubation on a shaking platform for 60 min at 4° C., the suspension was centrifuged and GST-PIF in the supernatant (2.0 μg) was incubated with GST-PKBα and MgATP for 60 min at 30° C. in the presence or absence of phospholipid vesicles containing 100 μM PtdCho, 100 μM PtdSer, and 10 μM sn-1-stearoyl-2-arachidonoyl-D-PtdIns(3,4,5)P3 (1,2-SAD-PtdIns(3,4,5)P3), or sn-1,2 di-palmitoyl-D-PtdIns(3,4,5)P3 (C16-PtdIns(3,4,5)P3) or sn-1,2 di-palmitoyl-D-PtdIns(3,4)P2 (C16-PtdIns(3,4)P2). The reactions were terminated by making the solutions 1% in SDS, and the samples were subjected to SDS/polyacylamide gel electrophoresis and immunoblotted using the P-Ser473 antibody. Identical results were obtained in 2 separate experiments (B) The wild type and mutant GST-PIF proteins (2.0 μg) used in FIG. 3 were incubated with GST-PKBα and MgATP for 60 min at 30° C. in the presence or absence of lipid vesicles containing 10 μM sn-1-stearoyl-2-arachidonoyl-D-PtdIns(3,4,5)P3 and the degree of phosphorylation of PKBα at Ser473 was established by immunoblotting. Similar results were obtained in 4 separate experiments using 2 different preparations of the wild type and mutant GST-PIF proteins.
FIG. 7. Specificity of phosphoinositide-dependent PIF/PDK1-induced phosphorylation of Thr308 and Ser473 of PKBα. GST-PKBα was incubated for 60 min at 30° C. with GST-PIF purified from 293 cells (which is associated with endogenous PDK1 see FIG. 3) (1.0 μg), MgATP and phospholipid vesicles containing 100 μM PtdCho, 100 μM PtdSer, and various PtdIns lipids (numbered 1-11, see below) all at a final concentration of 10 μM in the assay. In panel A the reactions were terminated by the addition of Triton X100 and the increase in specific activity of GST-S473D-PKBα (U/mg), determined, relative to a control incubation in which GST-PIF was omitted (±SEM for 6 determinations, two independent experiments). The basal activity of GST-S473D-PKBα was 3.5 U/mg. In Panel B the reactions were terminated by making the solutions 1% in SDS, the samples were subjected to SDS/polyacylamide gel electrophoresis and the extent of PKBα phosphorylation was established using the phospho-specific antibody that recognises PKBα phosphorylated at Ser 473. In B the results of 2 separate experiments with different preparations of lipid are shown. Lipid 1, Buffer control; Lipid 2, PtdIns 3P; Lipid 3, n-1,2-dipalmitoyl PtdIns(3,4)P2; Lipid 4, PtdIns(3,5)P2; Lipid 5, PtdIns(4,5)P2; Lipid 6, sn-1,2-dipalmitoyl D-PtdIns(3,4,5)P3; Lipid 7, rac-1,2-dilinoleoyl phosphatidyl D/L-myo-inositol 3,4,5trisphosphate; Lipid 8, sn-1-stearoyl, 2-arachidonoyl D-PtdIns(3,4,5,)P3; Lipid 9, sn-1-stearoyl, 2-arachidonoyl L-PtdIns(3,4,5,)P3; Lipid 10, sn-2-stearoyl, 3-arachidonoyl D-PtdIns(3,4,5,)P3; Lipid 11, sn-2-ste aroyl, 3-arachidonoyl L-PtdIns(3,4,5,)P3.
Phosphorylation of GST-PKBα by incubation with GST-PIF. In experiments in which the phosphorylation of PKBα was determined using the phospho-specific Ser473 PKBα antibodies, the incubations were identical to the Stage 1 described above except that the reactions were terminated by the addition of 1% (by mass) SDS and immunoblotting is carried out as described below. In experiments in which the sites of phosphorylation on PKBα are determined the incubations were identical to the Stage 1 described above except [γ^32P] ATP (1000-2000 cpm/pmol) was used instead of unlabelled ATP. […]
Background: Immunoblotting shows a protein as a band on a membrane.

The test system of the next test is PDK1. Put plainly: Activation of GST-ΔPH-PKBα by PDK1 with or without PIF and phosphoinositide. Type of test: biochemical. The conditions noted are these: for rate at which GST-PIF/PDK1 complex activates GST-ΔPH-PKBα, presence versus absence of lipid: GST-PIF/PDK1 complex purified from 293 cells. As to the method: FIG. 8. Maximal activation of PKB by PDK1/PIF requires PtdIns(3,4,5)P3 to interact with both PKB and PDK1. […] The basal activity of GST-ΔPH-PKBα was 3.0 U/mg.
Measurement of PKBα activation after incubation with GST-PIF. This assay was carried out in 2 stages, as described previously; briefly, in the first, GST-PKBα was incubated with GST-PIF (or other indicated PDK1 proteins in the presence or absence of peptides) in the presence of MgATP and phospholipid vesicles.
In Stage 1, an 15 μl reaction mixture was set up containing 66.5 mM Tris/HCl pH 7.5, 0.13 mM EGTA, 0.13% (by vol) 2-mercaptoethanol, 3.3 μM PKI, 1.3 μM microcystin-LR, 13.3 mM Mg(Ac)2, 133 μM unlabelled ATP, 0.4 μM GST-PKBA, 133 μM PtdSer, 133 μM PtdCho in the presence or absence of 13.3 μM PtdIns(3,4,5)P3. The assay was initiated by the addition of 5 μl of 0.2 mg/ml GST-PIF (or other indicated proteins or peptides), after incubation for 30 min at 30° C., stage 2 of the assay was initiated by the addition of 30 μl of a mixture made up of Buffer B containing 2.5 μM PKI, 1 μM microcystin-LR, 10 mM Mg(Ac)2, 100 μM [γ^32P]ATP (200-400 cpm/pmol), 100 μM of the peptide RPRTAAF (SEQ ID NO:13) and 1.25% (by vol) Triton X-100. After 10 min at 30° C., the reactions were terminated by spotting the reaction mixture on to P81 phosphocellulose paper. The papers were washed in 75 mM phosphoric acid and analysed as described previously. A control reaction in which GST-PKBα was omitted was taken as the blank and was always less than 5% of the activity measured in the presence of GST-PKBα. The basal GST-PKBα activity is the activity measured in the absence of PDK1. 1 Unit of GST-PKBα activity was that amount of enzyme required to catalyse the phosphorylation of 1 nmol of the peptide RPRTAAF (SEQ ID NO:13) in 1 min. The assays were linear with time up to a final concentration of 3 U/ml of PDK1 activity in the assay.

Entries after “also recorded” stand apart in the source; their conditions may differ.

T1 sequence (O15530 whole entry): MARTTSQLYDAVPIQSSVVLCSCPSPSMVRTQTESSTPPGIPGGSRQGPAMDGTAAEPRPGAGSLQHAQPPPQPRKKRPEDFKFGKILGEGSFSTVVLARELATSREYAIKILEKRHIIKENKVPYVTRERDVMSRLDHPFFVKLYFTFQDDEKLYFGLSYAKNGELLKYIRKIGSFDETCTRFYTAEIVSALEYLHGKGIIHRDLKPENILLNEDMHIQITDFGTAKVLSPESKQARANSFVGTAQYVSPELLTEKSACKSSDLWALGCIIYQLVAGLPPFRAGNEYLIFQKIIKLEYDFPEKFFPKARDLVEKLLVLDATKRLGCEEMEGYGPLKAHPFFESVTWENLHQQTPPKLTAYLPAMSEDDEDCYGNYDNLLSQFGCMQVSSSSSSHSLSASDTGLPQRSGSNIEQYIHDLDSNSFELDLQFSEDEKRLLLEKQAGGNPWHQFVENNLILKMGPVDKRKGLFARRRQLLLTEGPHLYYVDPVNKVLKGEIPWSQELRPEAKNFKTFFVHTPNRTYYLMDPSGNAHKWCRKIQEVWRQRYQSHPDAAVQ
T1 sequence (Q16513 908-984 partner): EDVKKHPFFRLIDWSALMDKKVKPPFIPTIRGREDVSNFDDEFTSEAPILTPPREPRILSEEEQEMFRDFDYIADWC

Take `CCCCCCCCCCCCCCCC(=O)OC[C@H](COP(=O)(O)OC1[C@H](O)[C@H](OP(=O)(O)O)C(OP(=O)(O)O)[C@H](OP(=O)(O)O)[C@H]1O)OC(=O)CCCCCCCCCCCCCCC` (stereo partly drawn) [Lipid 6, sn-1,2-dipalmitoyl D-PtdIns(3,4,5)P3]: the “phosphorylation of GST-PKBα at Ser473” value at GST-PIF/PDK1 complex was “may also be effective”.

As for “sn-2-ste aroyl, 3-arachidonoyl L-PtdIns(3,4,5,)P3 [Lipid 11]”, the “phosphorylation of GST-PKBα at Ser473” value on GST-PIF/PDK1 complex is on record as “failed to induce a significant phosphorylation; also recorded: may not induce”.

As to `CCCCC/C=C\C/C=C\C/C=C\C/C=C\CCCC(=O)O[C@H](COC(=O)CCCCCCCCCCCCCCCCC)COP(=O)(O)O[C@H]1[C@@H](O)[C@H](OP(=O)(O)O)[C@@H](OP(=O)(O)O)[C@H](OP(=O)(O)O)[C@H]1O` [Lipid 8, sn-1-stearoyl, 2-arachidonoyl D-PtdIns(3,4,5,)P3], the “rate at which GST-PIF/PDK1 complex activates GST-ΔPH-PKBα, presence versus absence of lipid” value with PDK1 is on record as roughly 4 fold. Further, in the test on PDK1 (His-PDK1/GST-PIF*, presence versus absence of lipid), the “enhancement of the rate at which PDK1 complexed to PIF activates GST-ΔPH-PKBα” value lay in the range of 3 to 4 fold. For the same compound, the “rate at which His-PDK1 activates GST-ΔPH-PKBα, presence versus absence of lipid” value in the test with PDK1 (His-PDK1 alone, no PIF) is “the same”. The entries for the “phosphorylation of GST-PKBα at Ser473” value on GST-PIF/PDK1 complex and on GST-PIF/PDK1 complex (listed as PtdIns(3,4,5)P3) were “highly effective; also recorded: may be capable of enhancing” and “strongly phosphorylated”, respectively.

As to `CCCCC/C=C\C/C=C\C/C=C\C/C=C\CCCC(=O)O[C@H](COC(=O)CCCCCCCCCCCCCCCCC)COP(=O)(O)OC1[C@@H](O)[C@H](OP(=O)(O)O)C(OP(=O)(O)O)[C@H](OP(=O)(O)O)[C@H]1O` (stereo partly drawn) [Lipid 9, sn-1-stearoyl, 2-arachidonoyl L-PtdIns(3,4,5,)P3], the “phosphorylation of GST-PKBα at Ser473” value at GST-PIF/PDK1 complex is “failed to induce a significant phosphorylation; also recorded: may not induce”.

With PtdIns(4,5)P2 [Lipid 5], the “rate at which GST-PIF/PDK1 complex activates GST-ΔPH-PKBα, presence versus absence of lipid” value in the test on PDK1 is “do not increase”. In addition, on GST-PIF/PDK1 complex, the “phosphorylation of GST-PKBα at Ser473” value is “did not induce”.

Regarding `CCCCC/C=C\C/C=C\CCCCCCCC(=O)OCC(COP(=O)(O)OC1C(O)C(OP(=O)(O)O)C(OP(=O)(O)O)C(OP(=O)(O)O)C1O)OC(=O)CCCCCCC/C=C\C/C=C\CCCCC` (racemic) [Lipid 7, rac-1,2-dilinoleoyl phosphatidyl D/L-myo-inositol 3,4,5-trisphosphate], the “phosphorylation of GST-PKBα at Ser473” value on GST-PIF/PDK1 complex is “may also be effective”.

Turning to `CCCCCCCCCCCCCCCC(=O)OCC(COP(=O)(O)OC1C(O)C(O)C(OP(=O)(O)O)C(OP(=O)(O)O)C1O)OC(=O)CCCCCCCCCCCCCCC` (stereo not drawn) [Lipid 3, sn-1,2-dipalmitoyl PtdIns(3,4)P2], the “rate at which GST-PIF/PDK1 complex activates GST-ΔPH-PKBα, presence versus absence of lipid” value in the test on PDK1 was roughly 4 fold. Also, the “phosphorylation of GST-PKBα at Ser473” value on GST-PIF/PDK1 complex is “may also be effective”; on GST-PIF/PDK1 complex (listed as PtdIns(3,4)P2) it was “strongly phosphorylated”.

Turning to PtdIns-3P [Lipid 2], the “rate at which GST-PIF/PDK1 complex activates GST-ΔPH-PKBα, presence versus absence of lipid” value in the test on PDK1 is “do not increase”. In addition, the “phosphorylation of GST-PKBα at Ser473” value on GST-PIF/PDK1 complex is given as “did not induce”.

With `CCCCC/C=C\C/C=C\C/C=C\C/C=C\CCCC(=O)OC[C@@H](COP(=O)(O)O[C@H]1[C@@H](O)[C@H](OP(=O)(O)O)[C@@H](OP(=O)(O)O)[C@H](OP(=O)(O)O)[C@H]1O)OC(=O)CCCCCCCCCCCCCCCCC` [Lipid 10, sn-2-stearoyl, 3-arachidonoyl D-PtdIns(3,4,5,)P3], the “phosphorylation of GST-PKBα at Ser473” value at GST-PIF/PDK1 complex is recorded as “highly effective; also recorded: may be capable of enhancing”.

On to PtdIns(3,5)P2 [Lipid 4], for which the “phosphorylation of GST-PKBα at Ser473” value on GST-PIF/PDK1 complex is “did not induce”.
